From the supplement of paper PMC3937590

What was measured:
Test in all cases: -log10 GI50 (growth inhibition 50%) (-log10(M)); higher = more potent growth inhibition
SUM185PE = system: SUM185PE
Outline: (§1)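 The reported figure is the negative logarithm of GI50, defined as the molar concentration that produces the set level of growth inhibition. The logarithm is base 10. It comes from a Gompertz curve fitted by nonlinear least squares to 72-hour luminescence data from breast cancer cell lines given nine doses in 1:5 serial dilution, in triplicate, with a time-zero plate as reference. A < qualifier marks values equal to the top dose.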

HCC2185 = system: HCC2185
Outline: as §1

HCC1954 = system: HCC1954
Outline: as §1

HCC1937 = system: HCC1937
Outline: as §1

HCC1143 = system: HCC1143
Outline: as §1

CAMA1 = system: CAMA1
Outline: as §1

MCF10A = system: MCF10A
Outline: as §1

BT20 = system: BT20
Outline: as §1

BT549 = system: BT549
Outline: as §1

HCC70 = system: HCC70
Outline: as §1

MCF10F = system: MCF10F
Outline: as §1

SUM52PE = system: SUM52PE
Outline: as §1

MDAMB415 = system: MDAMB415
Outline: as §1

ZR75B = system: ZR75B
Outline: as §1

MDAMB453 = system: MDAMB453
Outline: as §1

184A1 = system: 184A1
Outline: as §1

HCC3153 = system: HCC3153
Outline: as §1

HCC1419 = system: HCC1419
Outline: as §1

T47D = system: T47D
Outline: as §1

ZR751 = system: ZR751
Outline: as §1

BT483 = system: BT483
Outline: as §1

HCC38 = system: HCC38
Outline: as §1

MCF7 = system: MCF7
Outline: as §1

UACC812 = system: UACC812
Outline: as §1

MDAMB361 = system: MDAMB361
Outline: as §1

SKBR3 = system: SKBR3
Outline: as §1

SUM1315MO2 = system: SUM1315MO2
Outline: as §1

SUM149PT = system: SUM149PT
Outline: as §1

HCC1395 = system: HCC1395
Outline: as §1

MX1 = system: MX1
Outline: as §1

184B5 = system: 184B5
Outline: as §1

MDAMB175VII = system: MDAMB175VII
Outline: as §1

SUM225CWN = system: SUM225CWN
Outline: as §1

MDAMB157 = system: MDAMB157
Outline: as §1

AU565 = system: AU565
Outline: as §1

SUM229PE = system: SUM229PE
Outline: as §1

HCC1569 = system: HCC1569
Outline: as §1

HCC1428 = system: HCC1428
Outline: as §1

HCC1187 = system: HCC1187
Outline: as §1

SUM159PT = system: SUM159PT
Outline: as §1

MDAMB134VI = system: MDAMB134VI
Outline: as §1

T47D_KBluc = system: T47D_KBluc
Outline: as §1

BT474 = system: BT474
Outline: as §1

HS578T = system: HS578T
Outline: as §1

MCF12A = system: MCF12A
Outline: as §1

600MPE = system: 600MPE
Outline: as §1

MDAMB231 = system: MDAMB231
Outline: as §1

HCC1806 = system: HCC1806
Outline: as §1

LY2 = system: LY2
Outline: as §1

Nc1[nH]nc2nnc(-c3c(-c4ccccc4)nn4ccccc34)cc12
-log10 GI50 (SUM185PE): 4.43 | -log10 GI50 (HCC2185): < 4 | -log10 GI50 (HCC1954): < 4.48 | -log10 GI50 (HCC1937): < 4 | -log10 GI50 (HCC1143): 4.6 | -log10 GI50 (CAMA1): < 4 | -log10 GI50 (MCF10A): < 4.48 | -log10 GI50 (BT20): 4.55 | -log10 GI50 (BT549): < 4 | -log10 GI50 (HCC70): 4.54 | -log10 GI50 (MCF10F): 4.09 | -log10 GI50 (SUM52PE): 4.49 | -log10 GI50 (MDAMB415): < 4 | -log10 GI50 (ZR75B): 4.56 | -log10 GI50 (MDAMB453): < 4 | -log10 GI50 (184A1): 4.61 | -log10 GI50 (HCC3153): < 4.48 | -log10 GI50 (HCC1419): 4.88 | -log10 GI50 (T47D): < 4.48 | -log10 GI50 (ZR751): 5.23 | -log10 GI50 (BT483): 4.45 | -log10 GI50 (HCC38): 4.24 | -log10 GI50 (MCF7): < 4.48 | -log10 GI50 (UACC812): 4.56 | -log10 GI50 (MDAMB361): 4.67 | -log10 GI50 (SKBR3): < 4 | -log10 GI50 (SUM1315MO2): 4.71 | -log10 GI50 (SUM149PT): 4.73 | -log10 GI50 (HCC1395): 4.56 | -log10 GI50 (MX1): < 4.48 | -log10 GI50 (184B5): 4.89 | -log10 GI50 (MDAMB175VII): 5.08 | -log10 GI50 (SUM225CWN): 4.62 | -log10 GI50 (MDAMB157): < 4 | -log10 GI50 (AU565): < 4.48 | -log10 GI50 (SUM229PE): < 4.48 | -log10 GI50 (HCC1569): < 4 | -log10 GI50 (HCC1428): 4.56 | -log10 GI50 (HCC1187): 4.7 | -log10 GI50 (SUM159PT): < 4.48 | -log10 GI50 (MDAMB134VI): < 4 | -log10 GI50 (T47D_KBluc): < 4 | -log10 GI50 (BT474): 4.69 | -log10 GI50 (HS578T): < 4.48 | -log10 GI50 (MCF12A): < 4 | -log10 GI50 (600MPE): 4.65

O=C(O)c1ccc(-c2c[nH]c3ncc(-c4ccccc4)cc23)cc1C1CCCC1
-log10 GI50 (SUM185PE): 4.79 | -log10 GI50 (HCC2185): < 4.18 | -log10 GI50 (HCC1954): < 4.48 | -log10 GI50 (HCC1937): < 4.48 | -log10 GI50 (HCC1143): < 4.18 | -log10 GI50 (CAMA1): < 4.18 | -log10 GI50 (MCF10A): 5.55 | -log10 GI50 (BT20): < 4.48 | -log10 GI50 (BT549): < 4.48 | -log10 GI50 (HCC70): < 4.18 | -log10 GI50 (MCF10F): 4.59 | -log10 GI50 (SUM52PE): < 4.48 | -log10 GI50 (MDAMB415): < 4.48 | -log10 GI50 (ZR75B): < 4.18 | -log10 GI50 (MDAMB453): < 4.18 | -log10 GI50 (MDAMB231): < 4.18 | -log10 GI50 (184A1): 5.95 | -log10 GI50 (HCC3153): < 4.48 | -log10 GI50 (HCC1419): < 4.18 | -log10 GI50 (T47D): < 4.48 | -log10 GI50 (ZR751): < 4.18 | -log10 GI50 (BT483): < 4.48 | -log10 GI50 (HCC38): < 4.48 | -log10 GI50 (HCC1806): < 4.18 | -log10 GI50 (MCF7): < 4.48 | -log10 GI50 (UACC812): < 4.18 | -log10 GI50 (MDAMB361): < 4.18 | -log10 GI50 (SKBR3): < 4.48 | -log10 GI50 (SUM1315MO2): 6.1 | -log10 GI50 (SUM149PT): < 4.18 | -log10 GI50 (HCC1395): < 4.18 | -log10 GI50 (MX1): 4.45 | -log10 GI50 (184B5): 5.97 | -log10 GI50 (MDAMB175VII): < 4.18 | -log10 GI50 (MDAMB157): < 4.18 | -log10 GI50 (AU565): < 4.48 | -log10 GI50 (SUM229PE): 5.8 | -log10 GI50 (HCC1569): < 4.18 | -log10 GI50 (HCC1428): < 4.18 | -log10 GI50 (SUM159PT): < 4.48 | -log10 GI50 (MDAMB134VI): < 4.18 | -log10 GI50 (T47D_KBluc): < 4.18 | -log10 GI50 (BT474): < 4.18 | -log10 GI50 (LY2): 5.15 | -log10 GI50 (MCF12A): 5.13 | -log10 GI50 (600MPE): < 4.18
